Experiments:
[1] = Fluorescent spectrum: incorporation of hydrophobic environmental probe ANS-Na into hydrogel; assay type: physicochemical; settings: 10 μM ANS-Na, 1 mM Eg3C8U aqueous solution
Experimental: Using ANS-Na (8-anilino-1-naphthalene sulfonic acid sodium salt) known as a hydrophobic environmental probe, the hydrogel was tested for incorporation of a fluorescent substance thereinto.

[2] = Confirmation of formation of hydrogel (gelling when heated in water); assay type: physicochemical
Experimental: Two ml of deionized water was added to 1 mg of the compound (8), which was dissolved by ultrasonication with cooling in an ice bath. With gradually heating up to room temperature, this was statically left as such for 30 minutes.

hydrogel formation ([2]; 1 mg in 2 ml deionized water, transparent solution at 0° C., heated up to room temperature, left 30 minutes): formed a hydrogel | lowermost gelling concentration ([2]; in water, gels when heated): 0.05 wt. %
SMILES: COCCOCCOCCOCCCCCCNC(=O)Nc1cc(NC(=O)NCCCCCCOCCOCCOCCOC)cc(NC(=O)NCCCCCCOCCOCCOCCOC)c1 [compound (8), 1,1′,1″-(benzene-1,3,5-triyl)tris{3-(2,5,8,11-tetraoxaheptadecan-17-yl)urea}]
fluorescence of ANS-Na in hydrogel versus aqueous solution [1]: fluorescent intensity increased in the hydrogel and was shifted to the short wavelength side

Source: US8772540B2, “Thermal responsive molecule” (Kyushu University, National University Corporation, priority 2009, dated 2014)
